Reference: ChEMBL document CHEMBL1125372, “Crystal-structure-based design and synthesis of benz[cd]indole-containing inhibitors of thymidylate synthase” (J Med Chem, 1992)

Experiments:
[1] = system: GC3/MTK-; assay: Inhibition of cellular growth by the MTT colorimetric assay in GC3/M TK-, a human thymidine kinase deficient adenocarcinoma line
[2] = system: L1210; assay: Inhibition of cellular growth by the MTT colorimetric assay in L1210, murine leukemia cell line; settings: Mus musculus
[3] = system: CCRF-CEM; assay: Inhibition of cellular growth by the MTT colorimetric assay in CCRF-CEM, human lymphoblasticof T-cell origin
[4] = Compound was evaluated for thymidylate shift expressed as the ratio of the IC50 in the presence of […] uM thymidylate divided by the IC50 with no thymidylate added
[5] = molecular target: Thymidylate synthase (Homo sapiens) (UniProt P04818)
Description: (§1) Inhibitory activity against thymidylate synthase from human

[6] = molecular target: Thymidylate synthase (Escherichia coli) (UniProt C3SWJ7)
Description: Inhibitory activity against thymidylate synthase from Escherichia coli

[7] = molecular target: Thymidylate synthase (Escherichia coli) (UniProt C3SWJ7); remark: listed apart in the source
Description: Compound was evaluated for its inhibitory activity against thymidylate synthase from Escherichia coli

[8] = molecular target: Thymidylate synthase (Homo sapiens) (UniProt P04818); remark: listed apart in the source
Description: as §1

Sequence of Thymidylate synthase (Escherichia coli) (C3SWJ7 1-264): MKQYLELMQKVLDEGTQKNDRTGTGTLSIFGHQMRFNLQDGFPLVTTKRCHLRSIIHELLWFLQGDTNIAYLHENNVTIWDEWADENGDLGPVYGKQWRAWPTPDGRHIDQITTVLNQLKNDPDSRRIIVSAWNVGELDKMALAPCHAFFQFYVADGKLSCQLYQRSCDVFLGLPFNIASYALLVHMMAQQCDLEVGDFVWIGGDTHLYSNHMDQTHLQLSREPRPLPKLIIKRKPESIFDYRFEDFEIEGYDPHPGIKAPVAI
Sequence of Thymidylate synthase (Homo sapiens) (P04818 2-313 limits assumed): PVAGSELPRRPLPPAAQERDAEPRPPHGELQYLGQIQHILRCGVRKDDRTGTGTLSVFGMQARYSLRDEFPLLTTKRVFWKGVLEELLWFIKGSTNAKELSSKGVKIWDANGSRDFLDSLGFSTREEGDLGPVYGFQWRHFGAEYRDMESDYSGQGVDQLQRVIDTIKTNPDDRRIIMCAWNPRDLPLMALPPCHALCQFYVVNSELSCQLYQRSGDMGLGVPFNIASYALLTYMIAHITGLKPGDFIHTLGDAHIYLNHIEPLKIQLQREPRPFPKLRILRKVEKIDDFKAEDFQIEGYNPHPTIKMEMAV

Compound	IC50 [2] [nM]	IC50 [3] [nM]	Thymidylate shift [4]	Kis [5] [µM]	Kii [6] [µM]	Kis [7] [µM]	Kii [8] [µM]	IC50 [1] [nM]
CN(Cc1ccc(S(=O)(=O)c2ccccc2)cc1)c1ccc2c3c(cccc13)C(NN)=N2	2400	1300						> 10000
COc1ccc(S(=O)(=O)c2ccc(CN(C)c3ccc4c5c(cccc35)C(N)=N4)cc2)cc1	1200	2100						2100
Cc1ccc2c3c(ccc(N(C)Cc4ccc(S(=O)(=O)c5ccccc5)cc4)c13)NC2=O	1900	4800						> 5000
CSC1Nc2ccc(N(C)Cc3ccc(S(=O)(=O)c4ccc(O)cc4)cc3)c3cccc1c23 (stereo unspecified)	> 4000	> 4000						> 4000
CC(=O)c1cccc2c(N(C)Cc3ccc(S(=O)(=O)c4ccc(N)cc4)cc3)ccc(N)c12	9100	5900						> 10000
CN(Cc1ccc(S(=O)(=O)c2ccc(O)cc2)cc1)c1ccc2c3c(cccc13)C(=O)N2	10000	9500						9500
CNC1=Nc2ccc(N(C)Cc3ccc(S(=O)(=O)c4ccc(OC)cc4)cc3)c3c(C)ccc1c23	720	890						1500
Cc1ccc2c3c(ccc(N(C)Cc4ccc(S(=O)(=O)c5ccc([N+](=O)[O-])cc5)cc4)c13)N=C2N	570	690						910
Cc1ccc2c3c(ccc(N(C)Cc4ccc(S(=O)(=O)c5ccc(N)cc5)cc4)c13)NC2=O	3300	5000						> 5000
CC(C)N(Cc1ccc(S(=O)(=O)N2CCNCC2)cc1)c1ccc2c3c(cccc13)C(=O)N2	3900	6800						5900
COc1ccc(S(=O)(=O)c2ccc(CN(C)c3ccc4c5c(ccc(C)c35)C(=O)N4)cc2)cc1	2000	4000						> 5000
CN(Cc1ccc(S(=O)(=O)c2ccc(O)cc2)cc1)c1ccc2c3c(cccc13)C(N)=N2	2100	2700						4050
CNC1=Nc2ccc(N(C)Cc3ccc(S(=O)(=O)c4ccccc4)cc3)c3cccc1c23	1600	3300						3400
O=C1Nc2ccc(N(CCO)Cc3ccc(S(=O)(=O)N4CCNCC4)cc3)c3cccc1c23	50000	31000						> 50000
CN(Cc1ccc(S(=O)(=O)c2ccccc2)cc1)c1ccc2c3c(cccc13)C(NO)=N2	810	2000						> 5000
CN(Cc1ccc(S(=O)(=O)c2ccc([N+](=O)[O-])cc2)cc1)c1ccc2c3c(cccc13)C(=O)N2	2000	2800						> 5000
Cc1ccc2c3c(ccc(N(C)Cc4ccc(S(=O)(=O)c5ccc([N+](=O)[O-])cc5)cc4)c13)NC2=O	890	2400						> 5000
CCN(Cc1ccc(S(=O)(=O)c2ccccc2)cc1)c1ccc2c3c(cccc13)C(=O)N2	3050	> 3330						3330
COc1ccc(S(=O)(=O)c2ccc(CN(C)c3ccc4c5c(ccc(C)c35)C(NO)=N4)cc2)cc1	4100	5000						> 10000
CCCN(Cc1ccc(S(=O)(=O)N2CCNCC2)cc1)c1ccc2c3c(cccc13)C(=O)N2	2900	3100						5400
CCN(Cc1ccc(S(=O)(=O)c2ccccc2)cc1)c1ccc2c3c(cccc13)C(N)=N2	700	1250						3000
Cc1ccc2c3c(ccc(NCc4ccc(S(=O)(=O)c5ccccc5)cc4)c13)NC2=O	2000	2500						> 5000
COc1ccc(S(=O)(=O)c2ccc(CN(C)c3ccc4c5c(ccc(C)c35)C(N)=N4)cc2)cc1	310	400						970
O=C1Nc2ccc(NCc3ccc(S(=O)(=O)c4ccccc4)cc3)c3cccc1c23	2300	> 4000						> 4000
O=C1Nc2ccc(N(CCCO)Cc3ccc(S(=O)(=O)N4CCNCC4)cc3)c3cccc1c23	21500	15000						30000
COc1ccc(S(=O)(=O)c2ccc(CN(C)c3ccc4c5c(cccc35)C(=O)N4)cc2)cc1	4600	3000						10000
CSCN(Cc1ccc(S(=O)(=O)c2ccccc2)cc1)c1ccc2c3c(cccc13)C(=O)N2	2100	2800						> 10000

Now from value to compound, other results behind:

IC50 [2] [nM]	IC50 [3] [nM]	Thymidylate shift [4]	Kis [5] [µM]	Kii [6] [µM]	Kis [7] [µM]	Kii [8] [µM]	Compound	IC50 [1] [nM]
> 5000	> 5000						CN(Cc1ccc(S(=O)(=O)N2CCOCC2)cc1)c1ccc2c3c(ccc(Cl)c13)C(=O)N2	> 5000
2600	3900						Cc1ccc2c3c(ccc(N(C)Cc4ccc(S(=O)(=O)N5CCOCC5)cc4)c13)NC2=O	> 5000
> 5000	> 5000						CN(Cc1ccc(S(=O)(=O)N2CCOCC2)cc1)c1ccc2c3c(cccc13)C(=O)N2	> 5000
1900	3100						CSc1ccc2c3c(ccc(N(C)Cc4ccc(S(=O)(=O)N5CCOCC5)cc4)c13)N=C2N	6900
250	360	3.85					Cc1ccc2c3c(ccc(N(C)Cc4ccc(S(=O)(=O)c5ccccc5)cc4)c13)N=C2N	520
220	220						Cc1ccc2c3c(ccc(N(C)Cc4ccc(S(=O)(=O)N5CCOCC5)cc4)c13)N=C2N	440
1800	> 5000						CNC1=Nc2ccc(N(C)Cc3ccc(S(=O)(=O)N4CCOCC4)cc3)c3cccc1c23	> 5000
440	900						CN(Cc1ccc(S(=O)(=O)N2CCOCC2)cc1)c1ccc2c3c(ccc(Cl)c13)C(N)=N2	1400
280	200						Cc1ccc2c3c(ccc(N(C)Cc4ccc(S(=O)(=O)c5ccc(N)cc5)cc4)c13)N=C2N	270
490	460		0.012	5.4	1.8	0.015	CN(Cc1ccc(S(=O)(=O)N2CCOCC2)cc1)c1ccc2c3c(cccc13)C(=N)N2	900
180	610			0.088	0.055		CNC1=Nc2ccc(N(C)Cc3ccc(S(=O)(=O)N4CCOCC4)cc3)c3c(C)ccc1c23	210
